Among the test systems are MOLT-4 leukemia; OVCAR-4 ovarian; A498 renal; SR leukemia; A549 NSCLC; UACC-62 melanoma; SW-620 colon; DU-145 prostate; PC-3 prostate.
Common to all, as to test: NCI anticancer screen, dose series, 48 h

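Results reflect a 48-hour exposure of cells in 96-well plates to compound at five concentrations. GI50: concentration for 50% inhibition of growth. The concentration for full growth arrest is given as TGI.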

Consider `CS(=O)(=O)OC1CCC2(C#N)CCC1C2=O` (stereo unspecified), for which the TGI in the assay on MOLT-4 leukemia was > 100 µM; in the assay on OVCAR-4 ovarian, > 100 µM; in the assay with A498 renal, > 100 µM; in the assay with SR leukemia, 44 µM; with A549 NSCLC, > 100 µM; in the assay with UACC-62 melanoma, > 100 µM.
For the compound `O=[N+]([O-])c1ccc(C[P+](c2ccccc2)(c2ccccc2)c2ccccc2)cc1`, the TGI was > 100 µM in the assay on MOLT-4 leukemia; > 100 µM in the assay on A498 renal; > 100 µM in the assay with SR leukemia; > 100 µM with A549 NSCLC; 95.6 µM with UACC-62 melanoma; > 100 µM with SW-620 colon.
In the case of `CC1=C(C(=O)Nc2cc(=O)n(C)c(=O)n2C)C(c2ccco2)C(C(=O)Nc2cc(=O)n(C)c(=O)n2C)=C(C)N1`, the TGI with MOLT-4 leukemia, with OVCAR-4 ovarian, in the assay on A498 renal, in the assay with A549 NSCLC and in the assay on SW-620 colon was > 100 µM throughout.
With `CC1(C)O[C@H]2[C@H](O)C[C@](O)(CO)C[C@H]2O1`, the TGI in the assay on MOLT-4 leukemia, in the assay on OVCAR-4 ovarian, in the assay on SR leukemia, with A549 NSCLC, in the assay on UACC-62 melanoma and in the assay with SW-620 colon was > 100 µM throughout.
In the case of `CCc1ccccc1NC(=O)C1=C(C)NC(C)=C(C(=O)Nc2ccccc2CC)C1c1ccccc1Cl`, the TGI in the assay on MOLT-4 leukemia, in the assay on OVCAR-4 ovarian, in the assay with A498 renal, in the assay on A549 NSCLC and in the assay with SW-620 colon was > 100 µM each time.
`Cc1c2ccncc2c(C)c2c1[nH]c1ccc(OC(C)C)cc12`: the TGI in the assay on MOLT-4 leukemia was 2.97 µM; with OVCAR-4 ovarian, 3.14 µM; in the assay with A498 renal, 2.78 µM; in the assay on SR leukemia it was 3.73 µM; with A549 NSCLC it was 3.1 µM; in the assay on SW-620 colon, 1.89 µM.
`O=C(O)CCC(=O)N1c2ccccc2CC1c1c[nH]c2ccccc12` (stereo unspecified): the TGI in the assay with MOLT-4 leukemia, with OVCAR-4 ovarian, with A498 renal, with A549 NSCLC, with UACC-62 melanoma and in the assay on SW-620 colon was > 100 µM each time.
For the compound `O=C1N(C2CCCCC2)CC12CCCCC2`, the TGI with MOLT-4 leukemia, in the assay with OVCAR-4 ovarian, in the assay on A498 renal, in the assay with A549 NSCLC, with UACC-62 melanoma and in the assay on SW-620 colon was > 100 µM throughout.
On to `Cc1nnn[n-]1.N.N.N.N.N.[Cl-].[Co+3]`, for which the GI50 in the assay with MOLT-4 leukemia was > 100 µM; in the assay with A498 renal it was 4.14 µM; with SR leukemia, > 100 µM; in the assay with A549 NSCLC, > 100 µM; with UACC-62 melanoma, > 100 µM; in the assay with SW-620 colon, > 100 µM. Besides, the TGI in the assay on MOLT-4 leukemia was > 100 µM; in the assay on A498 renal, 72 µM; with SR leukemia it was > 100 µM; in the assay on A549 NSCLC, > 100 µM; in the assay on UACC-62 melanoma it was > 100 µM; in the assay with SW-620 colon, > 100 µM.
Regarding `O=C(O)C1=C(O)C(C(=O)O)C23CCCCCCCCCCC12C(C(=O)O)C(O)=C3C(=O)O` (stereo unspecified), the TGI with MOLT-4 leukemia, in the assay on SR leukemia, in the assay with A549 NSCLC and with SW-620 colon was > 100 µM in each case.
As for `COc1cc(Br)c(C=Nc2cccc3cc(OC)c(OC)cc23)cc1OC`, the TGI in the assay with MOLT-4 leukemia, with OVCAR-4 ovarian, in the assay on SR leukemia, with A549 NSCLC, in the assay on UACC-62 melanoma and in the assay on SW-620 colon was > 100 µM each time.
As to `O/N=C1/C(=C/c2ccc3c(c2)OCO3)CCCC1C(NO)c1ccc2c(c1)OCO2` (stereo unspecified), the TGI is 42.5 µM in the assay on MOLT-4 leukemia; 75.1 µM in the assay on OVCAR-4 ovarian; 79 µM in the assay on A498 renal; 95.4 µM with A549 NSCLC; 39.8 µM in the assay with UACC-62 melanoma; > 100 µM in the assay with SW-620 colon.
As for `C=CCNC(=O)N(CCCCC(NC(C)=O)C(=O)NCc1ccccc1)Cc1ccccc1` (stereo unspecified), the TGI in the assay on MOLT-4 leukemia, in the assay with OVCAR-4 ovarian, in the assay on A498 renal, with A549 NSCLC, with UACC-62 melanoma and with SW-620 colon was > 100 µM throughout.
`COc1ccc(C23C(=O)c4ccccc4N2O[C@H]2C(=O)N(c4ccccc4)C(=O)[C@H]23)cc1` (stereo partly specified): the TGI in the assay with MOLT-4 leukemia, with OVCAR-4 ovarian, in the assay on A498 renal, in the assay on A549 NSCLC, in the assay with UACC-62 melanoma and in the assay with SW-620 colon was > 100 µM throughout.
`CCCCCCCCCCCc1nnc(N)o1`: the TGI with MOLT-4 leukemia, in the assay on OVCAR-4 ovarian, with A549 NSCLC, in the assay on UACC-62 melanoma and with SW-620 colon was > 100 µM throughout.
Turning to `N.N.N.N.[Co+3].[N-]=[N+]=[N-].[N-]=[N+]=[N-].[N-]=[N+]=[N-]`, the GI50 in the assay with MOLT-4 leukemia was 36 µM; in the assay on OVCAR-4 ovarian it was > 100 µM; with A498 renal, > 100 µM; in the assay with A549 NSCLC, > 100 µM; with UACC-62 melanoma it was 85.2 µM; with SW-620 colon, > 100 µM. Besides, the TGI in the assay with MOLT-4 leukemia, with OVCAR-4 ovarian, in the assay on A498 renal, in the assay with A549 NSCLC, in the assay with UACC-62 melanoma and in the assay with SW-620 colon was > 100 µM each time.
Consider `CN1CCC2(CC1)ONC1=NCCN12`, for which the GI50 in the assay on MOLT-4 leukemia was 23.6 µM; in the assay with OVCAR-4 ovarian, > 100 µM; with DU-145 prostate, 51.3 µM; with A498 renal it was 41.4 µM; in the assay on PC-3 prostate, 26 µM; with UACC-62 melanoma, 31.2 µM. The GI50 in the assay with SW-620 colon is 51.8 µM. Moreover, the TGI with MOLT-4 leukemia is > 100 µM; in the assay on OVCAR-4 ovarian, > 100 µM; with DU-145 prostate it was > 100 µM; in the assay on A498 renal, > 100 µM; with PC-3 prostate, 66.5 µM; in the assay on UACC-62 melanoma, > 100 µM. Further, in the assay on SW-620 colon, the TGI was > 100 µM.
For `COc1ccc(/C=N/N=C(\N)NO)cc1O`, the TGI in the assay with MOLT-4 leukemia, in the assay with OVCAR-4 ovarian, in the assay with A549 NSCLC, with UACC-62 melanoma and in the assay with SW-620 colon was > 100 µM each time.
`O=C(O)CCN(CCCCN(CCC(=O)O)CCC(=O)O)CCC(=O)O`: the TGI in the assay on MOLT-4 leukemia, in the assay with OVCAR-4 ovarian, in the assay on A498 renal, in the assay on A549 NSCLC, in the assay on UACC-62 melanoma and with SW-620 colon was > 100 µM throughout.
As for `COC(=O)c1ccc(-c2nc3cc(Cl)c(Cl)cc3nc2C#N)cc1`, the GI50 with MOLT-4 leukemia, in the assay on OVCAR-4 ovarian, in the assay on DU-145 prostate, in the assay on A498 renal, in the assay on PC-3 prostate and in the assay on A549 NSCLC was > 100 µM in each case. Besides, the GI50 in the assay on UACC-62 melanoma and with SW-620 colon was > 100 µM throughout. The TGI with MOLT-4 leukemia, in the assay with OVCAR-4 ovarian, with DU-145 prostate, with A498 renal, in the assay on PC-3 prostate and in the assay with A549 NSCLC was > 100 µM throughout. In addition, the TGI in the assay with UACC-62 melanoma and in the assay on SW-620 colon was > 100 µM each time.
On to `N.N.N.N.N.NC(=O)c1nn[n-]n1.[Cl-].[Co+3]`, for which the GI50 with MOLT-4 leukemia, in the assay on OVCAR-4 ovarian, with SR leukemia, with A549 NSCLC, in the assay with UACC-62 melanoma and in the assay on SW-620 colon was > 100 µM in each case. Also, the TGI with MOLT-4 leukemia, with OVCAR-4 ovarian, with SR leukemia, in the assay with A549 NSCLC, in the assay with UACC-62 melanoma and with SW-620 colon was > 100 µM throughout.
On to `COC(=O)NC(=O)c1cn(C2OC(CO)C(O)C2O)c(=O)[nH]c1=O` (stereo unspecified), for which the TGI in the assay on MOLT-4 leukemia, with OVCAR-4 ovarian, with SR leukemia, in the assay with A549 NSCLC, with UACC-62 melanoma and in the assay with SW-620 colon was > 100 µM throughout.
For the compound `Cc1cc(CC(=O)NCCO)n(CCO)c(=O)c1`, the TGI with MOLT-4 leukemia, in the assay with OVCAR-4 ovarian, with SR leukemia, in the assay on A549 NSCLC, in the assay with UACC-62 melanoma and with SW-620 colon was > 100 µM throughout.
In the case of `NC(=O)C(=O)N/N=C1\C(=O)N(c2ccc(Cl)cc2Cl)C(=O)C1C(=O)Nc1ccc(Cl)cc1Cl` (stereo unspecified), the TGI in the assay on MOLT-4 leukemia, in the assay on A498 renal, in the assay with SR leukemia, in the assay with A549 NSCLC, with UACC-62 melanoma and in the assay on SW-620 colon was > 100 µM each time.
On to `Cc1cccc(/C=C/c2c(C(=O)/C=C/c3ccccc3)c(C)nc3ccccc23)c1`, for which the GI50 is 0.508 µM in the assay on MOLT-4 leukemia; 1.77 µM in the assay on A498 renal; 0.982 µM in the assay on SR leukemia; 1.91 µM with A549 NSCLC; 1.58 µM in the assay on UACC-62 melanoma; 1.34 µM with SW-620 colon. In addition, the TGI in the assay on MOLT-4 leukemia was 3.72 µM; in the assay on A498 renal, 3.26 µM; with SR leukemia, 4.94 µM; in the assay on A549 NSCLC it was 4.76 µM; in the assay with UACC-62 melanoma, 3.14 µM; in the assay with SW-620 colon it was 2.98 µM.

These data come from PubChem BioAssay (NCI).
